Reference: patent US10526323B2, “Indazole and azaindazole substituted compounds as mGluR4 allosteric potentiators, compositions, and methods of treating neurological dysfunction” (Vanderbilt University, priority 2015, dated 2020)
pEC50: −log10 of the molar value.

biological target: mGluR4 (UniProt Q14833); experiment: mGluR4 potentiation assay: increase in response to an EC20 concentration of agonist (species not given); assay type: cell-based; conditions: EC50 for potentiation of mGluR4; table does not state human or rat
Procedure, shortened: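 Human mGluR4 was expressed in CHO cells read with a Ca2+-sensitive dye; rat mGluR4 was co-expressed with GIRK in […] read by thallium flux. Potentiation is the rise over agonist-alone response, with EC50 and maximal potentiation from non-linear fits.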

**Q.** Cn1nc(Oc2ccc(C#N)cn2)c2c(Cl)cc(Nc3n[nH]c4cccnc34)cc21 [Example 207, 6-[4-chloro-1-methyl-6-(1H-pyrazolo[4,3-b]pyridin-3-ylamino)indazol-3-yl]oxypyridine-3-carbonitrile] was tested. Which pEC50 did it give?
**A.** Its pEC50 is 6.32.

**Q.** How did the pEC50 turn out when Cn1nc(OCCN2CCOCC2)c2c(Cl)cc(Nc3n[nH]c4cccnc34)cc21 [Example 209, N-[4-chloro-1-methyl-3-(2-morpholinoethoxy)indazol-6-yl]-1H-pyrazolo[4,3-b]pyridin-3-amine] was run?
**A.** The pEC50 was 6.49.

**Q.** Cn1nc(OC2COC2)c2ccc(Nc3n[nH]c4cccnc34)cc21 [Example 216, N-[1-methyl-3-(oxetan-3-yloxy)indazol-6-yl]-1H-pyrazolo[4,3-b]pyridin-3-amine] was tested. Which pEC50 did it give?
**A.** The pEC50 was 6.20.

**Q.** How did the pEC50 turn out when Cn1nc(OCCN2CCOCC2)c2ccc(Nc3n[nH]c4cccnc34)cc21 [Example 217, N-[1-methyl-3-(2-morpholinoethoxy)indazol-6-yl]-1H-pyrazolo[4,3-b]pyridin-3-amine] was run?
**A.** The pEC50 was 6.62.

**Q.** With Cn1nc(-c2ccncc2)c2ccc(Nc3n[nH]c4cccnc34)cc21 [Example 218, N-[1-methyl-3-(4-pyridyl)indazol-6-yl]-1H-pyrazolo[4,3-b]pyridin-3-amine] as the compound, how does the pEC50 read?
**A.** Its pEC50 is 6.06.

**Q.** With Cn1nc(OC2CCOCC2)c2ccc(Nc3n[nH]c4cccnc34)cc21 [Example 225, N-(1-methyl-3-((tetrahydro-2H-pyran-4-yl)oxy)-1H-indazol-6-yl)-1H-pyrazolo[4,3-b]pyridin-3-amine] as the compound, how does the pEC50 read?
**A.** Its pEC50 is 7.34.

**Q.** With Cn1nc(Oc2cccc(C#N)n2)c2ccc(Nc3n[nH]c4cccnc34)cc21 [Example 231, 6-((6-((1H-pyrazolo[4,3-b]pyridin-3-yl)amino)-1-methyl-1H-indazol-3-yl)oxy)picolinonitrile] as the compound, how does the pEC50 read?
**A.** Its pEC50 is 6.92.

**Q.** Cn1nc(Oc2ccc(C#N)cn2)c2ccc(Nc3n[nH]c4cccnc34)cc21 [Example 237, 6-((6-((1H-pyrazolo[4,3-b]pyridin-3-yl)amino)-1-methyl-1H-indazol-3-yl)oxy)nicotinonitrile] was tested. Which pEC50 did it give?
**A.** Its pEC50 is 6.80.

**Q.** With Cn1nc(OCc2ccncc2)c2ccc(Nc3n[nH]c4cccnc34)cc21 [Example 238, N-(1-methyl-3-(pyridin-4-ylmethoxy)-1H-indazol-6-yl)-1H-pyrazolo[4,3-b]pyridin-3-amine] as the compound, how does the pEC50 read?
**A.** Its pEC50 is 7.18.

**Q.** CCCOc1nn(C)c2cc(Nc3n[nH]c4cccnc34)ccc12 [Example 239, N-(1-methyl-3-propoxy-1H-indazol-6-yl)-1H-pyrazolo[4,3-b]pyridin-3-amine] was tested. Which pEC50 did it give?
**A.** Its pEC50 is 6.77.

**Q.** With [2H]C([2H])([2H])Oc1nn(C)c2cc(Nc3n[nH]c4cccnc34)ccc12 [Example 240, N-(3-(methoxy-d3)-1-methyl-1H-indazol-6-yl)-1H-pyrazolo[4,3-b]pyridin-3-amine] as the compound, how does the pEC50 read?
**A.** Its pEC50 is 6.53.

**Q.** [2H]C([2H])(C)Oc1nn(C)c2cc(Nc3n[nH]c4cccnc34)ccc12 [Example 241, N-(3-(ethoxy-1,1-d2)-1-methyl-1H-indazol-6-yl)-1H-pyrazolo[4,3-b]pyridin-3-amine] was tested. Which pEC50 did it give?
**A.** The pEC50 was 6.45.

**Q.** CC(C)COc1nn(C)c2cc(Nc3n[nH]c4cccnc34)ccc12 [Example 244, N-(3-isobutoxy-1-methyl-1H-indazol-6-yl)-1H-pyrazolo[4,3-b]pyridin-3-amine] was tested. Which pEC50 did it give?
**A.** Its pEC50 is 6.64.

**Q.** c1cnc2c(Nc3ccc4c(C5CC5)n[nH]c4c3)n[nH]c2c1 [Example 247, N-(3-cyclopropyl-1H-indazol-6-yl)-1H-pyrazolo[4,3-b]pyridin-3-amine] was tested. Which pEC50 did it give?
**A.** Its pEC50 is 6.34.

**Q.** Cc1nn(CC(F)(F)F)c2ncc(Nc3n[nH]c4cccnc34)cc12 [Example 253, 3-methyl-N-(1H-pyrazolo[4,3-b]pyridin-3-yl)-1-(2,2,2-trifluoroethyl)pyrazolo[3,4-b]pyridin-5-amine] was tested. Which pEC50 did it give?
**A.** The pEC50 was 6.62.

**Q.** With Cc1nn(C2CCCC2)c2ncc(Nc3n[nH]c4cccnc34)cc12 [Example 254, 1-cyclopentyl-3-methyl-N-(1H-pyrazolo[4,3-b]pyridin-3-yl)pyrazolo[3,4-b]pyridin-5-amine] as the compound, how does the pEC50 read?
**A.** The pEC50 was less than 5.00.

**Q.** How did the pEC50 turn out when Cc1nn(CCCO)c2ncc(Nc3n[nH]c4cccnc34)cc12 [Example 255, 3-[3-methyl-5-(1H-pyrazolo[4,3-b]pyridin-3-ylamino)pyrazolo[3,4-b]pyridin-1-yl]propan-1-ol] was run?
**A.** Its pEC50 is less than 4.52.

**Q.** Cc1nn(CCO)c2ncc(Nc3n[nH]c4cccnc34)cc12 [Example 256, 2-[3-methyl-5-(1H-pyrazolo[4,3-b]pyridin-3-ylamino)pyrazolo[3,4-b]pyridin-1-yl]ethanol] was tested. Which pEC50 did it give?
**A.** The pEC50 was less than 5.00.

**Q.** Cc1nn(CC2CC2)c2ncc(Nc3n[nH]c4cccnc34)cc12 [Example 257, 1-(cyclopropylmethyl)-3-methyl-N-(1H-pyrazolo[4,3-b]pyridin-3-yl)pyrazolo[3,4-b]pyridin-5-amine] was tested. Which pEC50 did it give?
**A.** Its pEC50 is less than 5.00.

**Q.** With CCn1nc(C)c2cc(Nc3n[nH]c4cccnc34)cnc21 [Example 258, 1-ethyl-3-methyl-N-(1H-pyrazolo[4,3-b]pyridin-3-yl)pyrazolo[3,4-b]pyridin-5-amine] as the compound, how does the pEC50 read?
**A.** The pEC50 was 6.32.

**Q.** With Cc1nn(C2CCOCC2)c2ncc(Nc3n[nH]c4cccnc34)cc12 [Example 259, 3-methyl-N-(1H-pyrazolo[4,3-b]pyridin-3-yl)-1-tetrahydropyran-4-yl-pyrazolo[3,4-b]pyridin-5-amine] as the compound, how does the pEC50 read?
**A.** The pEC50 was 5.43.

**Q.** With Cc1nn(C2CCCCC2)c2ncc(Nc3n[nH]c4cccnc34)cc12 [Example 260, 1-cyclohexyl-3-methyl-N-(1H-pyrazolo[4,3-b]pyridin-3-yl)pyrazolo[3,4-b]pyridin-5-amine] as the compound, how does the pEC50 read?
**A.** Its pEC50 is 6.36.

**Q.** How did the pEC50 turn out when COCCn1nc(C)c2cc(Nc3n[nH]c4cccnc34)cnc21 [Example 261, 1-(2-methoxyethyl)-3-methyl-N-(1H-pyrazolo[4,3-b]pyridin-3-yl)pyrazolo[3,4-b]pyridin-5-amine] was run?
**A.** Its pEC50 is 5.63.

**Q.** Cc1nn(CC(C)(C)C)c2ncc(Nc3n[nH]c4cccnc34)cc12 [Example 262, 1-(2,2-dimethylpropyl)-3-methyl-N-(1H-pyrazolo[4,3-b]pyridin-3-yl)pyrazolo[3,4-b]pyridin-5-amine] was tested. Which pEC50 did it give?
**A.** The pEC50 was 6.80.

**Q.** With Cc1nn(C2CC2)c2ncc(Nc3n[nH]c4cccnc34)cc12 [Example 263, 1-cyclopropyl-3-methyl-N-(1H-pyrazolo[4,3-b]pyridin-3-yl)pyrazolo[3,4-b]pyridin-5-amine] as the compound, how does the pEC50 read?
**A.** Its pEC50 is 6.39.

**Q.** With CCCn1nc(C)c2cc(Nc3n[nH]c4cccnc34)cnc21 [Example 264, 3-methyl-1-propyl-N-(1H-pyrazolo[4,3-b]pyridin-3-yl)pyrazolo[3,4-b]pyridin-5-amine] as the compound, how does the pEC50 read?
**A.** The pEC50 was 6.82.

**Q.** Cc1nn(C(C)C)c2ncc(Nc3n[nH]c4ncccc34)cc12 [Example 267, N-(1-isopropyl-3-methyl-1H-pyrazolo[3,4-b]pyridin-5-yl)-1H-pyrazolo[3,4-b]pyridin-3-amine] was tested. Which pEC50 did it give?
**A.** The pEC50 was less than 5.00.

**Q.** Cc1nn(C)c2ncc(Nc3n[nH]c4cccnc34)cc12 [Example 268, N-(1,3-dimethyl-1H-pyrazolo[3,4-b]pyridin-5-yl)-1H-pyrazolo[4,3-b]pyridin-3-amine] was tested. Which pEC50 did it give?
**A.** The pEC50 was less than 4.52.

**Q.** With Cc1nn(C(C)C)c2ncc(Nc3n[nH]c4ccccc34)cc12 [Example 269, N-(1H-indazol-3-yl)-1-isopropyl-3-methyl-1H-pyrazolo[3,4-b]pyridin-5-amine] as the compound, how does the pEC50 read?
**A.** The pEC50 was 5.59.

**Q.** Cc1nn(C(C)C)c2ncc(Nc3n[nH]c4cccnc34)cc12 [Example 270, N-(1-isopropyl-3-methyl-1H-pyrazolo[3,4-b]pyridin-5-yl)-1H-pyrazolo[4,3-b]pyridin-3-amine] was tested. Which pEC50 did it give?
**A.** The pEC50 was less than 4.52.

**Q.** With Cc1nn(C)c2ncc(Nc3n[nH]c4ccccc34)cc12 [Example 271, N-(1H-indazol-3-yl)-1,3-dimethyl-1H-pyrazolo[3,4-b]pyridin-5-amine] as the compound, how does the pEC50 read?
**A.** The pEC50 was less than 5.00.

**Q.** With CC(C)Cn1nc(Cl)c2cc(Nc3n[nH]c4cccnc34)ccc21 [Example 274, N-(3-chloro-1-isobutyl-1H-indazol-5-yl)-1H-pyrazolo[4,3-b]pyridin-3-amine] as the compound, how does the pEC50 read?
**A.** The pEC50 was 5.52.

**Q.** FC(F)(F)Cn1nc(Cl)c2cc(Nc3n[nH]c4cccnc34)ccc21 [Example 275, N-(3-chloro-1-(2,2,2-trifluoroethyl)-1H-indazol-5-yl)-1H-pyrazolo[4,3-b]pyridin-3-amine] was tested. Which pEC50 did it give?
**A.** Its pEC50 is 5.57.

**Q.** How did the pEC50 turn out when Clc1nn(C2CCC2)c2ccc(Nc3n[nH]c4cccnc34)cc12 [Example 276, N-(3-chloro-1-cyclobutyl-1H-indazol-5-yl)-1H-pyrazolo[4,3-b]pyridin-3-amine] was run?
**A.** Its pEC50 is less than 5.00.

**Q.** How did the pEC50 turn out when Cc1cc(Cn2nc(Cl)c3cc(Nc4n[nH]c5cccnc45)ccc32)on1 [Example 277, N-(3-chloro-1-((3-methylisoxazol-5-yl)methyl)-1H-indazol-5-yl)-1H-pyrazolo[4,3-b]pyridin-3-amine] was run?
**A.** Its pEC50 is 6.51.

**Q.** O=C(O)Cn1nc(Cl)c2cc(Nc3n[nH]c4cccnc34)ccc21 [Example 278, 2-(5-((1H-pyrazolo[4,3-b]pyridin-3-yl)amino)-3-chloro-1H-indazol-1-yl)acetic acid] was tested. Which pEC50 did it give?
**A.** The pEC50 was 5.81.

**Q.** Cc1cc(Cn2nc(Cl)c3cc(Nc4n[nH]c5cccnc45)ccc32)no1 [Example 279, N-(3-chloro-1-((5-methylisoxazol-3-yl)methyl)-1H-indazol-5-yl)-1H-pyrazolo[4,3-b]pyridin-3-amine] was tested. Which pEC50 did it give?
**A.** The pEC50 was 6.54.

**Q.** CC(C)n1nc(Cl)c2cc(Nc3n[nH]c4cccnc34)ccc21 [Example 280, N-(3-chloro-1-isopropyl-1H-indazol-5-yl)-1H-pyrazolo[4,3-b]pyridin-3-amine] was tested. Which pEC50 did it give?
**A.** The pEC50 was less than 5.00.

**Q.** CCCCn1nc(Cl)c2cc(Nc3n[nH]c4cccnc34)ccc21 [Example 281, N-(1-butyl-3-chloro-1H-indazol-5-yl)-1H-pyrazolo[4,3-b]pyridin-3-amine] was tested. Which pEC50 did it give?
**A.** The pEC50 was 5.61.

**Q.** How did the pEC50 turn out when [2H]C([2H])([2H])n1nc(Cl)c2cc(Nc3n[nH]c4cccnc34)ccc21 [Example 282, N-(3-chloro-1-(methyl-d3)-1H-indazol-5-yl)-1H-pyrazolo[4,3-b]pyridin-3-amine] was run?
**A.** Its pEC50 is less than 5.00.

**Q.** How did the pEC50 turn out when Cc1nn(CCCCN2CCCCC2)c2ccc(Nc3n[nH]c4cccnc34)cc12 [Example 283, N-(3-methyl-1-(4-(piperidin-1-yl)butyl)-1H-indazol-5-yl)-1H-pyrazolo[4,3-b]pyridin-3-amine] was run?
**A.** The pEC50 was 5.45.

**Q.** Clc1nn(CC2CC2)c2ccc(Nc3n[nH]c4cccnc34)cc12 [Example 284, N-(3-chloro-1-(cyclopropylmethyl)-1H-indazol-5-yl)-1H-pyrazolo[4,3-b]pyridin-3-amine] was tested. Which pEC50 did it give?
**A.** The pEC50 was less than 5.00.
